Consider five molecules from patent US4801588A, “Tetracyclic indole derivatives for treating hypertension” (Farmitalia Carlo Erba S.p.A., priority 1986, dated 1989).

Broadly, the LD50 is the dose expected to kill half of the subjects tested.

Where only a bound is given, the exact number is not on record here.

Series [1] has as its system mean blood pressure. Nature of the series: Antihypertensive activity: mean blood pressure (MBP) after oral administration in SHR rats, intraarterial measurement. It is filed as in vivo, rat (SHR). The conditions noted are these: single dose, limits P = 0.05, calculated from dose-response regression line; for ED25 and limits (dose lowering mean blood pressure of 25 mmHg): p.o. Here is the method:
Intrarterial measurements of mean blood pressure (MBP) were performed through catheters (PE 50, Clay Adams) implanted in the rat (SHR) right carotid artery under alothane anesthesia. Twenty four hours after surgery, the animals were placed in Ballman cages and the arterial cannula was connected via a pressure transducer to a Beckman blood pressure recorder for continuous monitoring of mean blood pressure.
MBP was recorded before the oral administration (basal values) and 15-30-60-120-240 minutes till 24 hours after treatment. Groups of 7-8 rats were orally treated with a single dose of the test compound or vehicle, methocel 0.5% w/v (0.2 ml/100 g b.w.). The ED25 was calculated for each compound from the dose-response regression line.
As reference standard drug, captopril was also tested.

The nature of series [2]: Orientative toxicity after oral treatment in male mice, seven days observation. It is filed as in vivo. The conditions noted are these: mouse, in vivo, po, observed for seven days. The source says:
(§1) Three male mice for each group were orally treated with drugs at different dose levels for the determination of orientative toxicity.

The test system of series [3] is male mice. The description is as above. Type of series: in vivo. The conditions noted are these: p.o., observed for seven days, 10080 min.
From the text: as §1

Regarding `C[C@H](CS)C(=O)N1CCC[C@H]1C(=O)O` [Captopril, captopril, reference compound], the ED (25 mmHg) in series [1] (Rattus norvegicus, po, read-out: ED25 and limits (dose lowering mean blood pressure of 25 mmHg)) was 13.7 mg/kg. In series [2], this molecule gave an LD50 at 168 h of more than 800 mg/kg.
Take `CN1C[C@H](CN2CC(=O)NC2=O)C2=Cc3cccc4[nH]cc(c34)C[C@H]21` [FCE 24378, 1-[[5(10→9)abeo-9,10-didehydro-6-methylergolin-8β-yl]methyl]-2,4-imidazolidinedione]: the “ED25 and limits (dose lowering mean blood pressure of 25 mmHg)” value in series [1] is given as 2.051 (1.180-2.971) mg.kg^-1. For the same molecule, the 50% lethal dose (LD50) in series [3] is more than 800 mg/kg.
The matching figures for “1-[[5-(10→9)abeo-9,10-didehydro-6-methylergolin-8β-yl]methyl]- 2,4-(1H,3H)-pyrimidinedione-N6 -oxide [FCE 24778]”: 0.402 (0.297-0.511) mg.kg^-1 and more than 800 mg/kg.
Taken in the same sequence, the figures for “1-[[5-(10→9)abeo-9,10-didehydro-6-methylergolin-8β-yl]methyl]- 2,4-(1H,3H)-pyrimidinedione [FCE 24379]” were 1.229 (0.661-1.845) mg.kg^-1 and more than 800 mg/kg.
The matching figures for `C[N+]1([O-])C[C@H](CN2CC(=O)NC2=O)C2=Cc3cccc4[nH]cc(c34)C[C@H]21` (stereo partly drawn) [FCE 25068, 1-[[5(10→9)abeo-9,10-didehydro-6-methylergolin-8β-yl]methyl]-2,4-imidazolidinedione-N6-oxide]: 4.272 (3.256-5.514) mg.kg^-1 and more than 800 mg/kg.
